Measured values reported in patent US6127360A, “Diamine derivatives and pharmaceutical containing the same” (Kowa Co., Ltd., priority 1997, dated 2000).

Key:
[1] = biological target: T1, LTD4 receptor (Cavia porcellus, UniProt Q2NNR5); assay: LTD4 Receptor Binding Inhibition Test ([3H]LTD4, guinea pig pulmomembranous protein); settings: read-out: LTD4 receptor dissociation constant (KD)
T1 construct: guinea pig pulm-omembranous protein and a test compound; from tissue; host or cells: guinea pig lung membranes
T1 sequence (Q2NNR5 1-340): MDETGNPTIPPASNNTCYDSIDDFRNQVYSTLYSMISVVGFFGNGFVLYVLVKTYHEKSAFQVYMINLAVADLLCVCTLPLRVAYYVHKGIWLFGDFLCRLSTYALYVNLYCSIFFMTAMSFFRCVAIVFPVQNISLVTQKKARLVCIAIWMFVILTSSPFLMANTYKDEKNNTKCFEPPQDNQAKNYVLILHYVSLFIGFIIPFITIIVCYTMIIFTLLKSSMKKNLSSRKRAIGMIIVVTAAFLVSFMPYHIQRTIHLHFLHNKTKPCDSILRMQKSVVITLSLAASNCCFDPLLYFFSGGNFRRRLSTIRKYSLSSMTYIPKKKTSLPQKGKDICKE
Description: LTD4 Receptor Binding Inhibition Test
An ice-cold tris hydrochloride/sodium chloride buffer (10 mM/100 mM, pH 7.5) was added to terminate the reaction, followed by immediate filtration through a Wattman CF/C filter. The filter was washed twice with 20 ml aliquots of the ice-cold buffer. The radioactivity of the residue was measured by a liquid scintillation counter.
In a binding assay, […] LTD4 was used for the measurement of a nonspecific binding.

[2] = biological target: T2, H1 receptor (Cavia porcellus, UniProt P31389); assay: H1 Receptor Binding Inhibition Test ([3H]mepyramin, guinea pig cerebromembranous protein); settings: read-out: H1 receptor dissociation constant (KD)
T2 construct: guinea pig cerebromembranous protein and a test compound; from tissue; host or cells: guinea pig brain membranes
Description: H1 Receptor Binding Inhibition Test
An ice-cold phosphate buffer was added to terminate the reaction, followed by immediate filtration through a Wattman CF/C filter. The filter was washed twice with 20 ml aliquots of the ice-cold buffer. The radio-activity of the residue was measured by a liquid scintillation counter. From a measurement value obtained without the addition of the test compound and measurements values obtained upon addition of the test compound at various concentrations, the dose-response of the inhibitory action of the test compound was measured and the 50% inhibitory concentration (IC50) was determined. Using the Cheng-Prusoff formula, a dissociation constant (KD) was calculated from the 50% inhibitory concentration (IC50).
In a binding assay, 10^4 M R(-)dimethindene was used for the measurement of a nonspecific binding.

[3] = biological target: T3, isolated guinea pig ileum (Cavia porcellus, UniProt Q2NNR5); assay: Anti-LTD4 action on isolated guinea pig ileum (LTD4 contraction); assay type: cell-based; settings: 10^-5 M test compound; contraction caused by 10^-8 M LTD4; read-out: Anti-LTD4 action (inhibition rate)
T3 construct: An isolated guinea pig ileum was cut into about 2 cm lengths; from tissue; host or cells: guinea pig ileum
T3 sequence (Q2NNR5 1-340): T1 sequence (Q2NNR5 1-340)
Description: Antihistaminic Action and Anti-LTD4 Action (In vitro Tests)
An isolated guinea pig ileum was cut into about 2 cm lengths. Each ileum piece was suspended in a 20-ml container filled with the Tyrode's buffer. An isotonic contractive response by histamine or LTD4 was recorded on a recorder. The Tyrode's buffer was controlled at 30° C., through which a mixed gas (95%O2 -5%CO2) was bubbled.

[4] = biological target: T4, H1 (Mus musculus, UniProt P70174); assay: Brain Penetration Test (ex vivo [3H]mepyramin binding in mouse brain); settings: ip; for ED50: peritoneal administration to mouse, brain taken 1 hour after, [3H]mepyramin 0.5 nM, read-out: IC50 (50% inhibitory dose), ex vivo; for selectivity ratio at 1 h: mouse, brain, IC50 (mg/kg)/H1 binding inhibition dissociation constant (nM), read-out: BP index
T4 construct: from tissue; host or cells: mouse brain homogenate, ex vivo after intraperitoneal dosing
Description: Described specifically, to a mouse of 20 g to 23 g, a test compound of a given concentration was peritoneally administered. Upon elapsed time of one hour after the administration, the mouse was sacrificed. The brain tissue was taken out, and was then homogenated with a 30 mM Na,K phosphate buffer (pH 7.5) to give 40 ml/g wet weight. […] Subsequent to incubation at 37° C. for 50 minutes, an ice-cold phosphate buffer was added to terminate the reaction. Each of the resulting mixtures was immediately filtered through Wattman CF/C filter. The filter was washed twice with 20 ml aliquots of the ice-cold buffer. The radioactivity of the residue was measured by a liquid scintillation counter. […] A BP index as an index of brain penetration was calculated in accordance with the following formula:
BP index=IC50 (mg/kg)/H1 binding inhibition dissociation constant (nM)

T4 sequence (P70174 whole entry): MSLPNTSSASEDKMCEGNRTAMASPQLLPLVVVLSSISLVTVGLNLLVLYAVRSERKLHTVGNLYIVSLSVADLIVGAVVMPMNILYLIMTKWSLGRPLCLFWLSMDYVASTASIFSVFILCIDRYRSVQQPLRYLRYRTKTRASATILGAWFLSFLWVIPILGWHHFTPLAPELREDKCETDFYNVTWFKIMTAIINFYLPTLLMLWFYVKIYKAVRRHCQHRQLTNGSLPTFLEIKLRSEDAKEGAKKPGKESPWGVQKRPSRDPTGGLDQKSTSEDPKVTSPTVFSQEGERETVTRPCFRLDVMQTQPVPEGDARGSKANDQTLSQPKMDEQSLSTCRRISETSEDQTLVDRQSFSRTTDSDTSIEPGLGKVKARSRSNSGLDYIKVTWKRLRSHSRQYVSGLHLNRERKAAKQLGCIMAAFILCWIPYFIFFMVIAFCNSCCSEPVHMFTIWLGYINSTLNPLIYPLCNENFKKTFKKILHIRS
T2 sequence (P31389 whole entry): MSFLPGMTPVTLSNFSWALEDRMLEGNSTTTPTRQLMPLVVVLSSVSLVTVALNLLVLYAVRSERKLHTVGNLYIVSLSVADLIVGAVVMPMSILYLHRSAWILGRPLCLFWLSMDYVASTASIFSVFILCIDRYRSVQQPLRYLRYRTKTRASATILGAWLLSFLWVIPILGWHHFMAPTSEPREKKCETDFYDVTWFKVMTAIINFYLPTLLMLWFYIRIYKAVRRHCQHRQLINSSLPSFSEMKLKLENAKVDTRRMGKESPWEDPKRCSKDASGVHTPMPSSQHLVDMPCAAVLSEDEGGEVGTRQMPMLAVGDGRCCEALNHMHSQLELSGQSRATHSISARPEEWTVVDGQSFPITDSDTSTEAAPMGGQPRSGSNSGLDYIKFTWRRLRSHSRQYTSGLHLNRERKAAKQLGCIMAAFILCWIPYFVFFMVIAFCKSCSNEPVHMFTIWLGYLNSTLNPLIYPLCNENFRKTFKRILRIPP

| Ki [1] [nM] | Ki [2] [nM] | inhibition at 10 µM [3] [%] | ED50 [4] [mg/kg] | SMILES | selectivity ratio at 1 h [4] |
| --- | --- | --- | --- | --- | --- |
| 8610 | 75.9 | 19 | – | O=c1ccc2ccc(OCCN3CCCN(Cc4ccc5ccccc5n4)CC3)cc2[nH]1 [Example 79, 7-{2-[4-(2-Quinolylmethyl)-1-homopiperazinyl]ethoxy}-1,2-dihydroquinolin-2-one] | – |
| 18400 | 4.31 | 11 | – | Cn1c(CN2CCCN(CCOc3ccc4ccc(=O)[nH]c4c3)CC2)nc2ccccc21 [Example 80, 7-{2-[4-(N-Methylbenzoimidazol-2-ylmethyl)-1-homopiperazinyl]ethoxy)-1,2-dihydroquinolin-2-one] | – |
| 35700 | 18.3 | 21 | – | CC1(C)C(=O)Nc2cccc(OCCCN3CCCN(Cc4ccc5ccccc5n4)CC3)c21 [Example 85, 3,3-Dimethyl-4-{3-[4-(2-quinolylmethyl)-1-homopiperazinyl]propoxy}-2,3-dihydro-1H-indol-2-one] | – |
| 9410 | 5.01 | 16 | 8.5 | O=C1CSc2cc(OCCCN3CCN(Cc4ccc5ccccc5n4)CC3)ccc2N1 [Example 90, 7-{3-[4-(2-quinolylmethyl)piperazinyl]propoxy}-3,4-dihydro-2H-1,4-benzothiazin-3-one] | 1.7 |
| – | – | – | 10 | Cc1ccc(OCCCN2CCN(Cc3ccc4ccccc4n3)CC2)c2c1NC(=O)CC2 [Example 91, 8-methyl-5-{3-[4-(2-quinolylmethyl)piperazinyl]propoxy}-1,2,3,4-tetrahydroquinolin-2-one] | 35.7 |
| 4230 | 55.7 | 42 | 16.5 | Cc1ccc(OCCCN2CCN(Cc3ccc4ccccc4n3)CC2)c2c1NC(=O)C2(C)C [Example 92] | 0.29 |
